Measured values published in the NIST ThermoML archive (doi:10.1021/je8007759).

Assay: xn = mol fraction of the nth substance listed

CC1CCC(=O)O1 (stereo not given) [γ-valerolactone] + O=C=O
Fluid (supercritical or subcritical phases), Pycnometric method
Conditions | mass density [kg/m3]
327.9 K, 12360 kPa, x1 = 0.1 | 876
327.9 K, 12500 kPa, x1 = 0.05 | 784
327.9 K, 12510 kPa, x1 = 0.025 | 726
327.9 K, 12630 kPa, x1 = 0.01 | 657
327.9 K, 12640 kPa, x1 = 0.15 | 937
327.9 K, 12700 kPa, x1 = 0.05 | 790
327.9 K, 12720 kPa, x1 = 0.025 | 735
327.9 K, 12740 kPa, x1 = 0.1 | 882
327.9 K, 12920 kPa, x1 = 0.05 | 795
327.9 K, 13010 kPa, x1 = 0.025 | 745
327.9 K, 13120 kPa, x1 = 0.15 | 941
327.9 K, 13130 kPa, x1 = 0.1 | 888
327.9 K, 13160 kPa, x1 = 0.05 | 800
327.9 K, 13320 kPa, x1 = 0.025 | 755
327.9 K, 13370 kPa, x1 = 0.1 | 891
327.9 K, 13410 kPa, x1 = 0.05 | 805
327.9 K, 13520 kPa, x1 = 0.15 | 943
327.9 K, 13640 kPa, x1 = 0.1 | 894
327.9 K, 13660 kPa, x1 = 0.025 | 765
327.9 K, 13700 kPa, x1 = 0.05 | 811
327.9 K, 13980 kPa, x1 = 0.15 | 947
327.9 K, 14010 kPa, x1 = 0.05 | 817
327.9 K, 14060 kPa, x1 = 0.025 | 776
327.9 K, 14180 kPa, x1 = 0.1 | 900
327.9 K, 14330 kPa, x1 = 0.05 | 823
327.9 K, 14440 kPa, x1 = 0.15 | 949
327.9 K, 14700 kPa, x1 = 0.05 | 829
327.9 K, 14780 kPa, x1 = 0.1 | 907
327.9 K, 14900 kPa, x1 = 0.15 | 952
327.9 K, 15080 kPa, x1 = 0.05 | 835
327.9 K, 15410 kPa, x1 = 0.1 | 913
327.9 K, 15460 kPa, x1 = 0.15 | 956
327.9 K, 15940 kPa, x1 = 0.15 | 959
327.9 K, 16050 kPa, x1 = 0.1 | 919
327.9 K, 16480 kPa, x1 = 0.15 | 962
327.9 K, 17080 kPa, x1 = 0.15 | 965
332.8 K, 12270 kPa, x1 = 0.025 | 651
332.8 K, 12280 kPa, x1 = 0.025 | 652
332.8 K, 12340 kPa, x1 = 0.025 | 655
332.8 K, 12390 kPa, x1 = 0.025 | 659
332.8 K, 12460 kPa, x1 = 0.025 | 663
332.8 K, 12530 kPa, x1 = 0.025 | 667
332.8 K, 12600 kPa, x1 = 0.025 | 671
332.8 K, 12680 kPa, x1 = 0.025 | 675
332.8 K, 12840 kPa, x1 = 0.025 | 683
332.8 K, 12980 kPa, x1 = 0.025 | 690
332.8 K, 13130 kPa, x1 = 0.025 | 696
332.8 K, 13420 kPa, x1 = 0.025 | 710
332.8 K, 13670 kPa, x1 = 0.025 | 718
332.8 K, 13940 kPa, x1 = 0.025 | 728
332.8 K, 14270 kPa, x1 = 0.025 | 738
332.8 K, 14540 kPa, x1 = 0.025 | 744
332.8 K, 14820 kPa, x1 = 0.025 | 752
332.8 K, 15190 kPa, x1 = 0.025 | 761
332.9 K, 11320 kPa, x1 = 0.01 | 487
332.9 K, 11330 kPa, x1 = 0.01 | 488
332.9 K, 11340 kPa, x1 = 0.01 | 490
332.9 K, 11350 kPa, x1 = 0.01 | 491
332.9 K, 11370 kPa, x1 = 0.01 | 493
332.9 K, 11380 kPa, x1 = 0.01 | 494
332.9 K, 11400 kPa, x1 = 0.01 | 496
332.9 K, 11410 kPa, x1 = 0.01 | 497
332.9 K, 11420 kPa, x1 = 0.01 | 498
332.9 K, 11440 kPa, x1 = 0.01 | 500
332.9 K, 11450 kPa, x1 = 0.01 | 501
332.9 K, 11470 kPa, x1 = 0.01 | 503
332.9 K, 11490 kPa, x1 = 0.01 | 506
332.9 K, 11520 kPa, x1 = 0.01 | 509
332.9 K, 11560 kPa, x1 = 0.01 | 511
332.9 K, 11600 kPa, x1 = 0.01 | 515
332.9 K, 11630 kPa, x1 = 0.01 | 518
332.9 K, 11660 kPa, x1 = 0.01 | 521
332.9 K, 11700 kPa, x1 = 0.01 | 524
332.9 K, 11730 kPa, x1 = 0.01 | 527
332.9 K, 11770 kPa, x1 = 0.01 | 531
332.9 K, 11810 kPa, x1 = 0.01 | 534
332.9 K, 11850 kPa, x1 = 0.01 | 537
332.9 K, 11890 kPa, x1 = 0.01 | 540
332.9 K, 11940 kPa, x1 = 0.01 | 543
332.9 K, 11990 kPa, x1 = 0.01 | 547
332.9 K, 12040 kPa, x1 = 0.01 | 551
332.9 K, 12090 kPa, x1 = 0.01 | 554
332.9 K, 12140 kPa, x1 = 0.01 | 558
332.9 K, 12190 kPa, x1 = 0.01 | 561
332.9 K, 12240 kPa, x1 = 0.01 | 565
332.9 K, 12290 kPa, x1 = 0.01 | 569
332.9 K, 12340 kPa, x1 = 0.01 | 573
332.9 K, 12390 kPa, x1 = 0.01 | 576
332.9 K, 12460 kPa, x1 = 0.01 | 580
332.9 K, 12530 kPa, x1 = 0.01 | 584
332.9 K, 12590 kPa, x1 = 0.01 | 588
332.9 K, 12600 kPa, x1 = 0.15 | 914
332.9 K, 12670 kPa, x1 = 0.01 | 592
332.9 K, 12750 kPa, x1 = 0.15 | 916
332.9 K, 12800 kPa, x1 = 0.01 | 600
332.9 K, 12820 kPa, x1 = 0.05 | 743
332.9 K, 12860 kPa, x1 = 0.05 | 743
332.9 K, 12920 kPa, x1 = 0.05 | 746
332.9 K, 12950 kPa, x1 = 0.01 | 608
332.9 K, 13060 kPa, x1 = 0.05 | 751
332.9 K, 13070 kPa, x1 = 0.1 | 854
332.9 K, 13090 kPa, x1 = 0.15 | 919
332.9 K, 13110 kPa, x1 = 0.01 | 617
332.9 K, 13170 kPa, x1 = 0.1 | 856
332.9 K, 13220 kPa, x1 = 0.05 | 755
332.9 K, 13270 kPa, x1 = 0.1 | 858
332.9 K, 13330 kPa, x1 = 0.01 | 628
332.9 K, 13380 kPa, x1 = 0.05 | 760
332.9 K, 13420 kPa, x1 = 0.1 | 861
332.9 K, 13440 kPa, x1 = 0.15 | 922
332.9 K, 13550 kPa, x1 = 0.05 | 766
332.9 K, 13550 kPa, x1 = 0.1 | 863
332.9 K, 13730 kPa, x1 = 0.1 | 865
332.9 K, 13730 kPa, x1 = 0.15 | 925
332.9 K, 13760 kPa, x1 = 0.05 | 770
332.9 K, 13890 kPa, x1 = 0.1 | 867
332.9 K, 13960 kPa, x1 = 0.05 | 776
332.9 K, 14060 kPa, x1 = 0.1 | 870
332.9 K, 14160 kPa, x1 = 0.05 | 781
332.9 K, 14250 kPa, x1 = 0.15 | 928
332.9 K, 14260 kPa, x1 = 0.1 | 873
332.9 K, 14400 kPa, x1 = 0.05 | 786
332.9 K, 14470 kPa, x1 = 0.1 | 876
332.9 K, 14620 kPa, x1 = 0.15 | 931
332.9 K, 14680 kPa, x1 = 0.05 | 792
332.9 K, 14680 kPa, x1 = 0.1 | 878
332.9 K, 14960 kPa, x1 = 0.05 | 798
332.9 K, 15000 kPa, x1 = 0.15 | 933
332.9 K, 15140 kPa, x1 = 0.1 | 884
332.9 K, 15260 kPa, x1 = 0.05 | 803
332.9 K, 15420 kPa, x1 = 0.1 | 888
332.9 K, 15420 kPa, x1 = 0.15 | 937
332.9 K, 15550 kPa, x1 = 0.05 | 809
332.9 K, 15660 kPa, x1 = 0.1 | 891
332.9 K, 15840 kPa, x1 = 0.15 | 940
332.9 K, 15950 kPa, x1 = 0.1 | 894
332.9 K, 16260 kPa, x1 = 0.1 | 897
332.9 K, 16380 kPa, x1 = 0.15 | 943
332.9 K, 16560 kPa, x1 = 0.1 | 900
332.9 K, 16870 kPa, x1 = 0.1 | 904
332.9 K, 17190 kPa, x1 = 0.1 | 907
337.9 K, 14310 kPa, x1 = 0.1 | 841
337.9 K, 14470 kPa, x1 = 0.1 | 844
337.9 K, 14580 kPa, x1 = 0.1 | 846
337.9 K, 14740 kPa, x1 = 0.1 | 848
337.9 K, 14900 kPa, x1 = 0.1 | 851
337.9 K, 15020 kPa, x1 = 0.1 | 852
337.9 K, 15200 kPa, x1 = 0.1 | 855
337.9 K, 15360 kPa, x1 = 0.1 | 857
337.9 K, 15580 kPa, x1 = 0.1 | 859
337.9 K, 15740 kPa, x1 = 0.1 | 862
337.9 K, 15940 kPa, x1 = 0.1 | 864
337.9 K, 16190 kPa, x1 = 0.1 | 868
337.9 K, 16420 kPa, x1 = 0.1 | 871
337.9 K, 16660 kPa, x1 = 0.1 | 874
337.9 K, 16920 kPa, x1 = 0.1 | 877
337.9 K, 17400 kPa, x1 = 0.1 | 883

mass density [kg/m3], high pressure variable cell
Conditions | 327.9 K | 332.8 K | 332.9 K
Gas, x1 = 0.01 | 496 | – | 486
Gas, x1 = 0.025 | 660 | 649 | –
Gas, x1 = 0.05 | 753 | – | 742
Liquid, x1 = 0.1 | 863 | – | 851
Liquid, x1 = 0.15 | 925 | – | 913

Liquid, high pressure variable cell
Conditions | Critical density [kg/m3]
x1 = 0.025 | 679
x1 = 0.05 | 774
x1 = 0.1 | 837
